Laboratory results published in article PMC5506043, “Inhibitory effects of local anesthetics on the proteasome and their biological actions” (Scientific Reports, 2017).
Read-outs that look alike come from different tables or passages of the source. Where a SMILES comes first, the peptide text is derived from it. The star is where a group is joined. Cbz = O=C(OCc1ccccc1)*

Tests used:
20S proteasome [1] = target: T1, 20S proteasome (Homo sapiens, UniProt P28074+P49721); test: 20S proteasome activity (chymotrypsin-like, Suc-Leu-Leu-Val-Tyr-MCA substrate); assay type: biochemical; conditions: for IC50: 37 °C, 1 h
T1 construct: purchased Calbiochem
Experimental: 20S Proteasome activity was assessed by fluorescence of free AMC (7-Amino-4-methylcoumarin, excitation: 380 nm, emission: 460 nm) liberated from a substrate peptide (Suc-Leu-Leu-Val-Tyr-MCA). The reaction mixture contained the 20S proteasome (500 μg/ml), the substrate peptide (10 μM) and the indicated drugs in 25 mM HEPES, 0.5 mM EDTA, 0.03% SDS, pH 7.6. The mixture was incubated at 37 °C for 1 h. AMC fluorescence liberated in the absence of drugs was taken as the basal value (100%). The fluorescence liberated in the absence of SDS was taken as the background value (0%)[13]. Most of the activity assays were conducted using an assay kit (Calbiochem), but some were conducted in hand-made buffer solutions.
Concentration dependence of the effects of each drug on the stability of the short-lived protein and the 20S proteasome activity was fitted using the following equation: B%=Bmax·[Drug]^n/(IC50^n+[Drug]^n) where, B% represents the changes in expression of the short-lived protein and the 20S proteasome activity induced by drugs at a given concentration of the [drug], and Bmax represents the maximum attainable reduction. IC50 and n are the half-maximal inhibitory concentration and Hill coefficient, respectively.

20S proteasome [2] = target: T1, 20S proteasome; test: [3H]-pilsicainide binding assay; conditions: displacement of [3H]-pilsicainide, 1 h, room temperature
Experimental: Commercially available 20S proteasome was purchased from Calbiochem. LAs and their derivatives at increasing concentrations (10^–8 to 10^–2 M) were incubated with [^3H]-pilsicainide for 1 h at room temperature in buffer containing 50 mM HEPES supplemented with 1% bovine serum albumin (pH 7.4). Following the reaction termination by addition of 100% […], the bound and unbound ligands were separated by centrifugation. Specific binding was defined as the difference between binding capacities in the pellet and supernatant.

p53 in MKN45 cells = test: Endogenous p53 expression in MKN45 cells (Western blot); assay type: cell-based; conditions: 24 h
Experimental: Cell lysates were analyzed by Western blot analysis (a). Quantitative analysis of p53-FLAG stability using densitometry is shown in (b). Each point was expressed relative to the values in the absence of drugs (100%). […] Cell lysates were analyzed by Western blot analysis (c). Quantitative analysis of the protein level of endogenous p53 was conducted using densitometry (d).
(§1) The same amounts (10 μg) of protein were separated on SDS-PAGE and electro-transferred to a polyvinylidene difluoride membrane. Membranes were probed with antibodies against FLAG (1:1000, Cosmo Bio), GFP (1:1000, Molecular Probes), ubiquitin (1:1000, MBL) or β-actin (1:1000, Oncogene) and were developed using an ECL detection system. Immunoprecipitation was carried out in PBS/1% Triton X-100, 0.5% SDS, 0.25% sodium deoxycholate, 1 mM ethylenediaminetetraacetic acid (EDTA), and 10 μg/ml aprotinin, 10 μg/ml leupeptine, 10 μg/ml pepstatin and 1 mM phenylmethylsulfonylfluoride for 2 h at 4 °C. Immune complexes were collected with protein G agarose (GE Healthcare Life Science) and bound proteins were analyzed by SDS-PAGE followed by immunoblotting.

p53-FLAG in COS7 cells = test: p53-FLAG expression in transfected COS7 cells (Western blot); assay type: cell-based
Experimental: pcDNA3/p53-FLAG was a kind gift from Dr. Nakayama (Kyushu University). pcDNA3/Mdm2 (C438A) was a kind gift from Dr. Yasuda (Tokyo Pharmaceutical College). pCR/CMV/hH1 was a kind gift from Dr. Makita (Hokkaido University). COS7 cells were maintained in Dulbecco’s modified Eagle medium (Gibco BRL)/10% fetal bovine serum at 37 °C in a 5% CO2 incubator. Cells were transfected using lipofectamine (Gibco BRL) according to the instructions provided by the manufacturer. Forty-eight hours after transfection, cells were assayed. Proteasome inhibitors or LAs were applied 36 hours after transfection. All drugs except for MG132 were dissolved in culture medium or distilled water. MG132 was dissolved in dimethyl sulfoxide (DMSO). The final concentration of DMSO in the culture or reaction medium was equal to or less than 0.01% v/v. Pilsicainide was kindly provided by Daiichi Suntory Pharmaceutical Co., Ltd. (Osaka, Japan).
as §1

20S proteasome [3] = target: T1, 20S proteasome; set-up: method as in PMID 23026372; conditions: previously reported; cited from earlier work
MKN45 cells [4] = test: Proliferation of MKN45 cells (MTT assay); assay type: cell-based; conditions: 24 h, p53-expressing cells
From the text: Figure 4 Effects of LAs on cancer cells. (a) Effects of LAs on the proliferation of MKN45 cells. […] Proliferation of […] was estimated by MTT assays.

MKN45 cells [5] = test: Tumor growth of pretreated MKN45 cells transplanted into mice; assay type: in vivo; conditions: MKN45 cells pretreated with drug, transplanted into the intestine of SOD SKID mice
Kato III cells = test: Proliferation of Kato III cells; assay type: cell-based; conditions: 24 h; pilsicainide 1 μM, lidocaine 20 μM; cells do not express p53
[6] = target: T2, wild-type 20S proteasome trypsin-like activity (Saccharomyces cerevisiae, UniProt P25043); test: Trypsin-like activity of the wild-type 20S proteasome; assay type: biochemical
T2 construct: U.B. purified the yeast 20S proteasome and assayed proteasome activity; made in house; host or cells: yeast (purified from wild-type cells; inferred)

[7] = target: T3, wild-type 20S proteasome caspase-like activity (Saccharomyces cerevisiae, UniProt P38624); test: Caspase-like activity of the wild-type 20S proteasome; assay type: biochemical
T3 construct: U.B. purified the yeast 20S proteasome and assayed proteasome activity; made in house; host or cells: yeast (purified from wild-type cells; inferred)

[8] = COS7 cells transfected with p53-FLAG
[9] = COS7 cells, dominant negative Mdm2 (C438A), 12 h, MG132 50 µM, pilsicainide 20 µM, lidocaine 1 mM

## O=C(CC12CCCN1CCC2)Nc1ccccc1F [2-F]
20S proteasome [1]; in vitro
  Effect on 20S proteasome activity (in words): partially inhibited
  IC50: 21.5 ± 46.8 µM

## O=C(CC12CCCN1CCC2)Nc1cccc(F)c1 [3-F]
20S proteasome [1]; in vitro
  Effect on 20S proteasome activity (in words): partially inhibited
  IC50: 20.5 ± 21.8 µM

## O=C(CC12CCCN1CCC2)Nc1ccc(F)cc1 [4-F]
20S proteasome [1]; in vitro
  Effect on 20S proteasome activity (in words): partially inhibited
20S proteasome [2]
  Kd: 20 ± 3.2 µM
p53 in MKN45 cells
  Endogenous p53 protein level (in words): increased p53 a little
p53-FLAG in COS7 cells; [8]
  Expression of p53-FLAG protein (in words): partially increased

## Cc1cccc(CCN2CCC(C(=O)c3ccc(NS(C)(=O)=O)cc3)CC2)n1 [E-4031]
20S proteasome [1]; in vitro
  Effect on 20S proteasome activity (in words): Neither the Ca^2+ channel blocker verapamil which contains two aromatic rings, nor the K^+ channel blocker E-4031, affected the activity

## CC(C)C[C@@H](C=O)NC(=O)[C@H](CC(C)C)NC(=O)[C@H](CC(C)C)NC(=O)OCc1ccccc1 [MG132] (Cbz-Leu-Leu-Leu-aldehyde)
p53-FLAG in COS7 cells
  Effect on p53-FLAG with co-expression of the C438A mutant of Mdm2 (in words): abolished the effects
  Expression of p53-FLAG protein (in words): increased the expression of p53-FLAG

## NC1=N[C@H](O)[C@H]2[C@H]3O[C@]4(O)O[C@@H]([C@@H](O)[C@@]2(N1)[C@@H]4O)[C@]3(O)CO [Tetrodotoxin]
20S proteasome [1]
  Effect on 20S proteasome activity (in words): did not inhibit 20S proteasome activity

## CCN(CC)CCCN(c1ccccc1)C1Cc2ccccc2C1 [aprindine]
20S proteasome [1]; in vitro
  Effect on 20S proteasome activity (in words): inhibit the 20S proteasome

## CC(C)COCC(CN(Cc1ccccc1)c1ccccc1)N1CCCC1 (stereo not drawn) [bepridil]
20S proteasome [3]
  Inhibitory action on the proteasome (in words): did not show the inhibitory action on the proteasome

## CCN(CC)CC(=O)Nc1c(C)cccc1C [lidocaine]
20S proteasome [1]; in vitro
  Effect on 20S proteasome activity (in words): inhibited 20S proteasome activity
20S proteasome [2]
  Kd: 21.2 ± 3.5 µM
MKN45 cells [4]
  Proliferation of MKN45 cells (in words): suppressed proliferation of MKN45 cells in a dose-dependent manner
MKN45 cells [5]
  Tumor growth of transplanted MKN45 cells (in words): significantly decreased the proliferation of MKN45 cells
MKN45 cells [5]; listed as Lidocaine
  Tumor growth of transplanted MKN45 cells (in words): suppression of tumor growth
p53 in MKN45 cells
  Endogenous p53 protein level (in words): increased the p53 protein level in MKN45 cells in a dose-dependent manner
p53-FLAG in COS7 cells; [8]
  Expression of p53-FLAG protein (in words): increased the expression of p53-FLAG
p53-FLAG in COS7 cells; [9]
  Effect on p53-FLAG with co-expression of the C438A mutant of Mdm2 (in words): abolished the effects
Kato III cells
  Suppression of proliferation of Kato III cells (in words): not observed

## Cc1cccc(C)c1OCC(C)N (stereo not drawn) [mexiletine]
20S proteasome [1]; in vitro
  Effect on 20S proteasome activity (in words): inhibit the 20S proteasome
  IC50: 14 ± 6.3 µM

## Cc1cccc(C)c1NC(=O)CC12CCCN1CCC2 [pilsicainide]
20S proteasome [1]; in vitro
  Effect on 20S proteasome activity (in words): inhibited 20S proteasome activity
  IC50: 3.5 ± 1.5 µM
20S proteasome [2]
  Kd: 1 ± 2.8 µM
MKN45 cells [4]
  Proliferation of MKN45 cells (in words): suppressed proliferation of MKN45 cells in a dose-dependent manner
p53 in MKN45 cells
  Endogenous p53 protein level (in words): increased the p53 protein level in MKN45 cells in a dose-dependent manner
p53-FLAG in COS7 cells; [8]
  Expression of p53-FLAG protein (in words): increased the expression of p53-FLAG
p53-FLAG in COS7 cells; [9]
  Effect on p53-FLAG with co-expression of the C438A mutant of Mdm2 (in words): abolished the effects
[6]
  Trypsin-like activity inhibition (in words): not inhibited
[7]
  Caspase-like activity inhibition (in words): not inhibited
Kato III cells
  Suppression of proliferation of Kato III cells (in words): not observed

## COc1ccc(CCN(C)CCCC(C#N)(c2ccc(OC)c(OC)c2)C(C)C)cc1OC (stereo not drawn) [verapamil]
20S proteasome [1]
  Effect on 20S proteasome activity (in words): Neither the Ca^2+ channel blocker verapamil which contains two aromatic rings, nor the K^+ channel blocker E-4031, affected the activity
